From patent publication US20070218456A1, “CELLULAR ASSAYS FOR SIGNALING RECEPTORS” (INVITROGEN CORPORATION, priority 2006, published 2007)
Values after ≈ are worked out from the molar mass of the structure shown.

System: T-REx™-G2A-NFAT-bla Freestyle™293F cells
Assay: T-REx G2A NFAT-bla Freestyle 293F beta-lactamase reporter assay (inducer dose response)
Details: for EC50: Homo sapiens, FreeStyle 293-F
Method: In order to control the levels of G2A expression, G2A was placed under the control of an inducible promoter using Invitrogen's T-REx™ system. To again assess feasibility, pcDNA 5 G2A/TO was transiently transfected into CRE-bla Freestyle™ and NFAT-bla Freestyle™ cell lines stably expressing the T-REx™ Tet repressor plasmid (pcDNA6/TR; e.g., catalog# V1025-20, Invitrogen, Carlsbad, Calif.). The transfected cells were then treated with 10 ug/mL, 1 ug/mL, or 100 ng/mL tetracycline for 24 h to induce G2A expression. […] Stable pools of cells were created in both the TR CRE-bla and TR NFAT-bla Freestyle™293F backgrounds.
Stimulation Kinetics—Selected pools of both CRE-bla and NFAT-bla T-REx™ G2A Freestyle™ cells were stimulated with tetracycline for 3, 4, 5, or 24 h and loaded for 2 h with 1 μM LiveBLAzer™-FRET B/G substrate.
To improve the balance between tetracycline-induced signaling and cell death by testing shorter induction times, lower tetracycline concentrations and altered culture conditions were utilized to promote cell health. A 16 h tetracycline stimulation time was attempted on the pools from the first sort. Cells were plated at 10,000 cells/well 24 hours prior to assay in DMEM+10% dFBS and incubated at 37° C./5% CO2 until time of assay. The cells were stimulated for 16 hours (e.g., overnight) with a dilution series of the tetracycline. Following stimulation, the cells were loaded for 2 hours at room temperature in the dark with LiveBLAzer™-FRET B/G loading solution containing 1 μM substrate. This assay was done in Poly-D-Lysine coated plates.
Since G2A has no known agonists, doxycycline and tetracycline were compared as inducers of the assay. An antibiotic selected pool of cells were plated at 10,000 cells/well 24 hours prior to assay in DMEM+10% dFBS and incubated at 37° C./5% CO2 until time of assay. The cells were stimulated with a dilution series of each compound for 16 hours at 37° C./5% CO2 and loaded for 2 hours at room temperature in the dark with LiveBLAzer™-FRET B/G loading solution containing 1 μM substrate.
Cell Density/well—The influence of cell-plating density on assay performance was tested to find the density giving the best response and Z′ while maintaining the expected pharmacology. Cells were plated 24 hours prior to the assay at the densities indicated in FIG. 14 in DMEM+10% dFBS and incubated at 37° C./5% CO2 until the time of assay. The cells were stimulated for 16 hours at 37° C./5% CO2 with a dilution series of the doxycycline. After incubation, the cells were loaded for 2 hours at room temperature in the dark with LiveBLAzer™-FRET B/G loading solution containing 1 μM substrate.
DMSO Tolerance—Tests were performed related to assay performance as a function of DMSO concentration to determine the robustness of the assay to the range of DMSO challenge routinely encountered during high-throughput screening. Dose response curves were performed in the presence of 0%, 0.25%, 0.5%, or 1% DMSO. Cells were plated at 10,000 cells/well 24 hours prior to assay in DMEM+10% dFBS and incubated at 37° C./5% CO2 until time of assay. After incubation, DMSO was added to the wells to final concentrations of 0%, 0.25%, 0.5% and 1% DMSO. The cells were stimulated for 16 hours with a dilution series of the doxycycline. Following stimulation, the cells were loaded for 2 hours at room temperature in the dark with LiveBLAzer™-FRET B/G loading solution containing 1 μM substrate.
The substrate loading times were varied to find the time for an optimal assay performance. Cells were plated at 10,000 cells/well 24 hours prior to assay in DMEM+10% dFBS and incubated at 37° C./5% CO2 until time of assay. After incubation, DMSO was added to the wells to final concentration of 0.5%.

[1] = 60 min substrate loading, 10,000 cells/well, 0.5% DMSO, 16 h
[2] = 90 min substrate loading, 10,000 cells/well, 0.5% DMSO, 16 h
[3] = 120 min substrate loading, 10,000 cells/well, 0.5% DMSO, 16 h
[4] = representative data, 16 h, 0.5% DMSO, 2 h loading

C[C@H]1c2cccc(O)c2C(=O)C2=C(O)[C@]3(O)C(=O)C(C(N)=O)=C(O)[C@@H](N(C)C)[C@@H]3[C@@H](O)[C@@H]21 [Doxycycline]
RR (Max) (0.0% DMSO, 10,000 cells/well, 16 h): 6.9 | RR (Max) (0.25% DMSO, 10,000 cells/well, 16 h): 7.2 | RR (Max) (0.50% DMSO, 10,000 cells/well, 16 h): 6.5 | RR (Max) (1.00% DMSO, 10,000 cells/well, 16 h): 5.4 | RR (Max) (1,250 cells/well, clone #20, 16 h, 0.5% DMSO): 3.51 | RR (Max) (2,500 cells/well, clone #20, 16 h, 0.5% DMSO): 4.8 | RR (Max) [1]: 4.5 | RR (Max) (5,000 cells/well, clone #20, 16 h, 0.5% DMSO): 5.93 | RR (Max) [2]: 6.5 | RR (Max) [3]: 6.5 | RR (Max) (10,000 cells/well, clone #20, 16 h, 0.5% DMSO): 7.7 | RR (Max) (Average of DR 1-3): 5.77 | RR (Max) (DR 1 (reproducibility, separate day)): 5.36 | RR (Max) (DR 2 (reproducibility, separate day)): 5.95 | RR (Max) (DR 3 (reproducibility, separate day)): 5.99 | RR (Max) (Fresh cells taken from culture): 5.99 | RR (Max) (Frozen cells thawed immediately before use): 2.48 | EC50 [1]: 0.162 ng/mL (≈ 0.364 nM) | EC50 [2]: 0.151 ng/mL (≈ 0.34 nM) | EC50 [3]: 0.172 ng/mL (≈ 0.388 nM) | EC50 (16 h, 0.0% DMSO, 10,000 cells/well): 0.159 ng/mL (≈ 0.358 nM) | EC50 (16 h, 0.25% DMSO, 10,000 cells/well): 0.197 ng/mL (≈ 0.444 nM) | EC50 (16 h, 0.50% DMSO, 10,000 cells/well): 0.172 ng/mL (≈ 0.388 nM) | EC50 (16 h, 1.00% DMSO, 10,000 cells/well): 0.187 ng/mL (≈ 0.422 nM) | EC50 (16 h, 1,250 cells/well, clone #20, 16 h, 0.5% DMSO): 0.305 ng/mL (≈ 0.687 nM) | EC50 (16 h, 2,500 cells/well, clone #20, 16 h, 0.5% DMSO): 0.216 ng/mL (≈ 0.485 nM) | EC50 (16 h, 5,000 cells/well, clone #20, 16 h, 0.5% DMSO): 0.199 ng/mL (≈ 0.447 nM) | EC50 (16 h, 10,000 cells/well, clone #20, 16 h, 0.5% DMSO): 0.291 ng/mL (≈ 0.655 nM) | EC50 (16 h, DR 1 (reproducibility, separate day), 10,000 cells/well, 0.5% DMSO): 0.246 ng/mL (≈ 0.553 nM) | EC50 (16 h, DR 2 (reproducibility, separate day), 10,000 cells/well, 0.5% DMSO): 0.0963 ng/mL (≈ 0.217 nM) | EC50 (16 h, DR 3 (reproducibility, separate day), 10,000 cells/well, 0.5% DMSO): 0.0533 ng/mL (≈ 0.12 nM) | EC50 (16 h, Fresh cells taken from culture, 10,000 cells/well): 0.0533 ng/mL (≈ 0.12 nM) | EC50 (16 h, Frozen cells thawed immediately before use, 10,000 cells/well, 16 h): > 0.985 ng/mL | EC50 (Average of DR 1-3): 0.132 ng/mL (≈ 0.297 nM) | EC50 (antibiotic selected pool, 10,000 cells/well, 16 h stimulation, 2 h loading): 1.6 ng/mL (≈ 3.6 nM) | EC50 [4]: 0.05 ng/mL (≈ 0.113 nM) | RR (Max) (antibiotic selected pool, 10,000 cells/well, 16 h stimulation): 3.3 | times more potent than tetracycline (antibiotic selected pool, 16 h): ~30 times | EC100 [4]: 2.2 ng/mL
